Measured values as given in ChEMBL document CHEMBL3046319, “PCR-RFLP detection of the E198A mutation conferring resistance to benzimidazoles in field isolates of Monilinia laxa from Greece” (Crop Prot, 2012).
≈ marks a conversion by molar mass, not a printed value. Calls of active or inactive are those of the source. No cut-off for these calls is given here.

Key:
[1] = system: Monilinia laxa; test: Fungicidal activity against Monilinia laxa isolate MLK12 assessed as reduction in mycelial growth rate at 1 to 10 ug/ml at 31 degC after 5 days; format: functional, organism-based
[2] = system: Monilinia laxa; test: Fungicidal activity against Monilinia laxa isolate MLP7 assessed as reduction in mycelial growth rate at 1 to 10 ug/ml at 28 degC after 8 days; format: functional, organism-based
[3] = system: Monilinia laxa; test: Fungicidal activity against Monilinia laxa isolate MLBO5 assessed as mean mycelial colony diameter at 25 degC after 4 days; format: functional
[4] = system: Monilinia laxa; test: Fungicidal activity against Monilinia laxa isolate MLK8 assessed as reduction in mycelial growth rate at 1 to 10 ug/ml at 31 degC after 5 days; format: functional, organism-based
[5] = system: Monilinia laxa; test: Fungicidal activity against Monilinia laxa isolate MLBO1 assessed as reduction in mycelial growth rate at 25 degC after 4 days; format: functional, organism-based; settings: isolate MLBO1, 96 h
[6] = system: Monilinia laxa; test: Fungicidal activity against Monilinia laxa isolate MLG2 assessed as reduction in mycelial growth rate at 1 to 10 ug/ml at 31 degC after 5 days; format: functional, organism-based
[7] = system: Monilinia laxa; test: Fungicidal activity against Monilinia laxa isolate MLK7 assessed as reduction in mycelial growth rate at 1 to 10 ug/ml at 31 degC after 5 days; format: functional, organism-based
[8] = system: Monilinia laxa; test: Fungicidal activity against Monilinia laxa isolate MLK1 assessed as mean number of conidia produced in the colony at 25 degC after 12 days by haemocytometer; format: functional
[9] = system: Monilinia laxa; test: Fungicidal activity against Monilinia laxa isolate MLC2 assessed as reduction in mycelial growth rate at 1 to 10 ug/ml at 28 degC after 8 days; format: functional, organism-based
[10] = system: Monilinia laxa; test: Fungicidal activity against Monilinia laxa isolate MLC2 assessed as mean mycelial colony diameter at 25 degC after 4 days; format: functional
[11] = system: Monilinia laxa; test: Fungicidal activity against Monilinia laxa isolate MLBO7 assessed as reduction in mycelial growth rate at 25 degC after 4 days; format: functional, organism-based; settings: isolate MLBO7, 96 h
[12] = system: Monilinia laxa; test: Fungicidal activity against Monilinia laxa isolate MLX2 assessed as reduction in mycelial growth rate at 1 to 10 ug/ml at 31 degC after 5 days; format: functional, organism-based
[13] = system: Monilinia laxa; test: Fungicidal activity against Monilinia laxa isolate MLK24 assessed as reduction in mycelial growth rate at 1 to 10 ug/ml at 31 degC after 5 days; format: functional, organism-based
[14] = system: Monilinia laxa; test: Fungicidal activity against Monilinia laxa isolate MLNS1 assessed as reduction in mycelial growth rate at 1 to 10 ug/ml at 28 degC after 8 days; format: functional, organism-based
[15] = system: Monilinia laxa; test: Fungicidal activity against Monilinia laxa isolate MLC1 assessed as reduction in mycelial growth rate at 25 degC after 4 days; format: functional, organism-based; settings: isolate MLC1, 96 h
[16] = system: Monilinia laxa; test: Fungicidal activity against Monilinia laxa isolate MLKS2 assessed as reduction in mycelial growth rate at 25 degC after 4 days; format: functional, organism-based; settings: isolate MLKS2, 96 h
[17] = system: Monilinia laxa; test: Fungicidal activity against Monilinia laxa isolate MLP7 assessed as reduction in mycelial growth rate at 1 to 10 ug/ml at 31 degC after 5 days; format: functional, organism-based
[18] = system: Monilinia laxa; test: Fungicidal activity against Monilinia laxa isolate MLB1 assessed as reduction in mycelial growth rate at 1 to 10 ug/ml at 31 degC after 5 days; format: functional, organism-based
[19] = system: Monilinia laxa; test: Fungicidal activity against Monilinia laxa isolate MLNS1 assessed as reduction in mycelial growth rate at 25 degC after 4 days; format: functional, organism-based; settings: isolate MLNS1, 96 h
[20] = system: Monilinia laxa; test: Fungicidal activity against Monilinia laxa isolate MLBO1 assessed as reduction in mycelial growth rate at 1 to 10 ug/ml at 31 degC after 5 days; format: functional, organism-based
[21] = system: Monilinia laxa; test: Fungicidal activity against Monilinia laxa isolate MLC2 assessed as virulence in prune fruits assessed as virulence treated 10 min prior to mycelial inoculation at 24 degC after 10 days relative to isolate MLX1by pathogenicity bioassay; format: functional
[22] = system: Monilinia laxa; test: Fungicidal activity against Monilinia laxa isolate MLK10 assessed as reduction in mycelial growth rate at 25 degC after 4 days; format: functional, organism-based; settings: isolate MLK10, 96 h
[23] = system: Monilinia laxa; test: Fungicidal activity against Monilinia laxa isolate KX5 assessed as reduction in mycelial growth rate at 1 to 10 ug/ml at 28 degC after 8 days; format: functional, organism-based
[24] = system: Monilinia laxa; test: Fungicidal activity against Monilinia laxa isolate MLK2 assessed as reduction in mycelial growth rate at 1 to 10 ug/ml at 28 degC after 8 days; format: functional, organism-based
[25] = system: Monilinia laxa; test: Fungicidal activity against Monilinia laxa isolate MLP2 assessed as virulence in prune fruits assessed as virulence treated 10 min prior to mycelial inoculation at 24 degC after 10 days relative to isolate MLX1by pathogenicity bioassay; format: functional
[26] = system: Monilinia laxa; test: Fungicidal activity against Monilinia laxa isolate MLX1 assessed as reduction in mycelial growth rate at 25 degC after 4 days; format: functional, organism-based; settings: isolate MLX1, 96 h
[27] = system: Monilinia laxa; test: Fungicidal activity against Monilinia laxa isolate MLX5 assessed as virulence in prune fruits assessed as virulence treated 10 min prior to mycelial inoculation at 24 degC after 10 days relative to isolate MLX1by pathogenicity bioassay; format: functional
[28] = system: Monilinia laxa; test: Fungicidal activity against Monilinia laxa isolate MLA1 assessed as reduction in mycelial growth rate at 25 degC after 4 days; format: functional, organism-based; settings: isolate MLA1, 96 h
[29] = system: Monilinia laxa; test: Fungicidal activity against Monilinia laxa isolate MLX3 assessed as reduction in mycelial growth rate at 1 to 10 ug/ml at 25 to 28 degC; format: functional, organism-based
[30] = system: Monilinia laxa; test: Fungicidal activity against Monilinia laxa isolate MLX5 assessed as mean mycelial colony diameter at 25 degC after 4 days; format: functional
[31] = system: Monilinia laxa; test: Fungicidal activity against Monilinia laxa isolate MLP2 assessed as reduction in mycelial growth rate at 1 to 10 ug/ml at 31 degC after 5 days; format: functional, organism-based
[32] = system: Monilinia laxa; test: Fungicidal activity against Monilinia laxa isolate MLK5 assessed as reduction in mycelial growth rate at 25 degC after 4 days; format: functional, organism-based; settings: isolate MLK5, 96 h
[33] = system: Monilinia laxa; test: Fungicidal activity against Monilinia laxa isolate MLK12 assessed as virulence in prune fruits assessed as virulence treated 10 min prior to mycelial inoculation at 24 degC after 10 days relative to isolate MLX1by pathogenicity bioassay; format: functional
[34] = system: Monilinia laxa; test: Fungicidal activity against Monilinia laxa isolate MLBO5 assessed as virulence in prune fruits assessed as virulence treated 10 min prior to mycelial inoculation at 24 degC after 10 days relative to isolate MLX1by pathogenicity bioassay; format: functional
[35] = system: Monilinia laxa; test: Fungicidal activity against Monilinia laxa isolate MLP2 assessed as mycelial growth at 1 ug/ml at 25 degC after 4 days; format: functional
[36] = system: Monilinia laxa; test: Fungicidal activity against Monilinia laxa isolate MLNS2 assessed as reduction in mycelial growth rate at 25 degC after 4 days; format: functional, organism-based; settings: isolate MLNS2, 96 h
[37] = system: Monilinia laxa; test: Fungicidal activity against Monilinia laxa isolate MLBO4 assessed as reduction in mycelial growth rate at 1 to 10 ug/ml at 31 degC after 5 days; format: functional, organism-based
[38] = system: Monilinia laxa; test: Fungicidal activity against Monilinia laxa isolate MLX5 assessed as mean number of conidia produced in the colony at 25 degC after 12 days by haemocytometer; format: functional
[39] = system: Monilinia laxa; test: Fungicidal activity against Monilinia laxa isolate MLBO2 assessed as mean number of conidia produced in the colony at 25 degC after 12 days by haemocytometer; format: functional
[40] = system: Monilinia laxa; test: Fungicidal activity against Monilinia laxa isolate MLG1 in prune fruits assessed as virulence treated 10 min prior to mycelial inoculation at 24 degC after 10 days relative to isolate MLX1by pathogenicity bioassay; format: functional

For COC(=O)Nc1nc2ccccc2[nH]1 [CARBENDAZIM], the inhibition [1] was “Active”, the inhibition [2] was “inactive” and the Activity [3] was 29.5 mm. The inhibition [4] was “Active”, the EC50 [5] was 0.11 µg/mL (≈ 0.575 µM) and the inhibition [6] was “Active”. The inhibition [7] was “Active”, the Activity [8] was 6.55 /cm2 and the inhibition [9] was “inactive”. The Activity [10] was 29.5 mm, the EC50 [11] was 0.1 µg/mL (≈ 0.523 µM) and the inhibition [12] was “Active”. For the same molecule, the inhibition [13] was “Active”, the inhibition [14] was “inactive” and the EC50 [15] was 0.03 µg/mL (≈ 0.157 µM). For the same molecule, the EC50 [16] was 0.01 µg/mL (≈ 0.0523 µM), the inhibition [17] was “Active” and the inhibition [18] was “Active”. The EC50 [19] was greater than 50 µg/mL, the inhibition [20] was “Active” and the Activity [21] was 98.52%. The EC50 [22] was 0.07 µg/mL (≈ 0.366 µM), the inhibition [23] was “inactive” and the inhibition [24] was “inactive”. It also gave an Activity [25] of 87.37%, an EC50 [26] greater than 50 µg/mL and an Activity [27] of 96.29%. The EC50 [28] was 0.06 µg/mL (≈ 0.314 µM), the inhibition [29] was “inactive” and the Activity [30] was 28.3 mm. The inhibition [31] was “Active”, the EC50 [32] was greater than 50 µg/mL and the Activity [33] was 99.2%. For the same molecule, the Activity [34] was 100%, the Activity [35] was 0% and the EC50 [36] was greater than 50 µg/mL. The inhibition [37] was “Active”, the Activity [38] was 4.4 /cm2 and the Activity [39] was 3.54 /cm2. The Activity [40] was 100%.
